Experimental data from the supplement of paper PMC10627819.

Assays:
[1] = tested on: S. aureus DSM 20231; test: fitness (endpoint OD595 vs no drug) (fraction); higher = more growth
In short: (§1)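 Volumes were 30 µl per well, or 55 µl for S. pneumoniae, in 384-well plates inoculated at OD595 0.01. Media were TSB, LB Lennox or CY at 37 °C, and OD595 was read every 30 min for 14 h with first-reading background subtraction. Fitness is the ratio of optical density at stationary-phase entry to the robust mean of no-drug controls. That ratio is capped at 1.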

[2] = tested on: B. subtilis 168; test: as above
In short: as §1

[3] = tested on: S. pneumoniae D39V; test: as above
In short: as §1

[4] = tested on: S. aureus DSM 20231; test: Bliss interaction score (quartile over a dose matrix) (fitness difference); higher = more antagonism (negative = synergy)
In short: (§2)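 The Bliss score is observed minus expected fitness, where expected fitness is the product of the single-drug fitness values inferred from the combination data. Fitness is the OD595 at the onset of stationary phase over the plate's robust no-drug mean, capped at 1. Scores are summarised by quartiles over technical, biological and donor/recipient replicates.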

[5] = tested on: S. aureus Newman; test: as above
In short: as §2

[6] = tested on: B. subtilis 168; test: as above
In short: as §2

[7] = tested on: S. pneumoniae D39V; test: as above
In short: as §2
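Throughout, for Bliss interaction score (quartile over a dose matrix): first quartile when negative (synergy) and third quartile when positive (antagonism).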

CC(=O)NC[C@H]1CN(c2ccc(N3CCOCC3)c(F)c2)C(=O)O1 [Linezolid] + COc1c(N2C[C@@H]3CCCN[C@@H]3C2)c(F)cc2c(=O)c(C(=O)O)cn(C3CC3)c12 [Moxifloxacin]
Details	fitness
[1], first compound 0.125 µg/mL, partner 0.0075 µg/mL	0.795
[1], first compound 0.125 µg/mL, partner 0.015 µg/mL	0.743
[1], first compound 0.125 µg/mL, partner 0.03 µg/mL	0.671
[1], first compound 0.25 µg/mL, partner 0.0075 µg/mL	0.541
[1], first compound 0.25 µg/mL, partner 0.015 µg/mL	0.5
[1], first compound 0.25 µg/mL, partner 0.03 µg/mL	0.582
[1], first compound 0.5 µg/mL, partner 0.0075 µg/mL	0.12
[1], first compound 0.5 µg/mL, partner 0.015 µg/mL	0.178
[1], first compound 0.5 µg/mL, partner 0.03 µg/mL	0.272
[2], first compound 0.125 µg/mL, partner 0.0312 µg/mL	0.0559
[2], first compound 0.125 µg/mL, partner 0.0625 µg/mL	0.0387
[2], first compound 0.125 µg/mL, partner 0.125 µg/mL	0.0364
[2], first compound 0.125 µg/mL, partner 2 µg/mL	0.036
[2], first compound 0.125 µg/mL, partner 4 µg/mL	0.0272
[2], first compound 0.125 µg/mL, partner 8 µg/mL	0.0181
[2], first compound 0.25 µg/mL, partner 0.0312 µg/mL	0.242
[2], first compound 0.25 µg/mL, partner 0.0625 µg/mL	0.0554
[2], first compound 0.25 µg/mL, partner 0.125 µg/mL	0.0577
[2], first compound 0.25 µg/mL, partner 2 µg/mL	0.0241
[2], first compound 0.25 µg/mL, partner 4 µg/mL	0.0237
[2], first compound 0.25 µg/mL, partner 8 µg/mL	0.0144
[2], first compound 0.5 µg/mL, partner 0.0312 µg/mL	0.044
[2], first compound 0.5 µg/mL, partner 0.0625 µg/mL	0.0596
[2], first compound 0.5 µg/mL, partner 0.125 µg/mL	0.0457
[2], first compound 0.5 µg/mL, partner 2 µg/mL	0.0308
[2], first compound 0.5 µg/mL, partner 4 µg/mL	0.021
[2], first compound 0.5 µg/mL, partner 8 µg/mL	0.0223
[3], first compound 0.105 µg/mL, partner 0.0037 µg/mL	0.739
[3], first compound 0.105 µg/mL, partner 0.0075 µg/mL	0.741
[3], first compound 0.105 µg/mL, partner 0.015 µg/mL	0.73
[3], first compound 0.2 µg/mL, partner 0.005 µg/mL	0.839
[3], first compound 0.2 µg/mL, partner 0.01 µg/mL	0.858
[3], first compound 0.2 µg/mL, partner 0.02 µg/mL	0.826
[3], first compound 0.21 µg/mL, partner 0.0037 µg/mL	0.647
[3], first compound 0.21 µg/mL, partner 0.0075 µg/mL	0.651
[3], first compound 0.21 µg/mL, partner 0.015 µg/mL	0.624
[3], first compound 0.4 µg/mL, partner 0.005 µg/mL	0.704
[3], first compound 0.4 µg/mL, partner 0.01 µg/mL	0.715
[3], first compound 0.4 µg/mL, partner 0.02 µg/mL	0.68
[3], first compound 0.42 µg/mL, partner 0.0037 µg/mL	0.366
[3], first compound 0.42 µg/mL, partner 0.0075 µg/mL	0.424
[3], first compound 0.42 µg/mL, partner 0.015 µg/mL	0.449
[3], first compound 0.8 µg/mL, partner 0.005 µg/mL	0.45
[3], first compound 0.8 µg/mL, partner 0.02 µg/mL	0.461

one replicate
Details	fitness
[1], first compound 0.125 µg/mL, partner 0.06 µg/mL	0.712
[1], first compound 0.125 µg/mL, partner 0.12 µg/mL	0.535
[1], first compound 0.25 µg/mL, partner 0.06 µg/mL	0.655
[1], first compound 0.25 µg/mL, partner 0.12 µg/mL	0.536
[1], first compound 0.5 µg/mL, partner 0.06 µg/mL	0.44
[1], first compound 0.5 µg/mL, partner 0.12 µg/mL	0.368
[1], first compound 1 µg/mL, partner 0.0075 µg/mL	0.0168
[1], first compound 1 µg/mL, partner 0.015 µg/mL	0.0282
[1], first compound 1 µg/mL, partner 0.03 µg/mL	0.0258
[2], first compound 0.0625 µg/mL, partner 0.0312 µg/mL	0.0541
[2], first compound 0.0625 µg/mL, partner 0.0625 µg/mL	0.0464
[2], first compound 0.0625 µg/mL, partner 0.125 µg/mL	0.0299

Details	Bliss interaction score
[4]	0.0931
[5]	0.074
[6]	0.0351
[7]	0.0972

CC(=O)NC[C@H]1CN(c2ccc(N3CCOCC3)c(F)c2)C(=O)O1 [Linezolid] + COc1ccc(C[C@H](N)C(=O)N[C@H]2[C@@H](O)[C@H](n3cnc4c(N(C)C)ncnc43)O[C@@H]2CO)cc1 [Puromycin]
fitness
Details	first compound 0.105 µg/mL	first compound 0.125 µg/mL	first compound 0.21 µg/mL	first compound 0.25 µg/mL	first compound 0.42 µg/mL	first compound 0.5 µg/mL
[1], partner 0.39 µg/mL	–	0.91	–	0.595	–	0.193
[1], partner 0.78 µg/mL	–	0.849	–	0.591	–	0.209
[1], partner 1.56 µg/mL	–	0.944	–	0.578	–	0.152
[2], partner 0.39 µg/mL	–	0.55	–	0.0916	–	0.0287
[2], partner 0.78 µg/mL	–	0.569	–	0.118	–	0.0397
[2], partner 1.56 µg/mL	–	0.599	–	0.128	–	0.0443
[3], partner 1 µg/mL	0.833	–	0.746	–	0.606	–
[3], partner 2 µg/mL	0.788	–	0.685	–	0.323	–
[3], partner 4 µg/mL	0.644	–	0.446	–	0.233	–

one replicate
Details	fitness
[1], first compound 0.125 µg/mL, partner 3.12 µg/mL	0.824
[1], first compound 0.125 µg/mL, partner 6.24 µg/mL	0.287
[1], first compound 0.25 µg/mL, partner 3.12 µg/mL	0.344
[1], first compound 0.25 µg/mL, partner 6.24 µg/mL	0.118
[1], first compound 0.5 µg/mL, partner 3.12 µg/mL	0.0742
[1], first compound 0.5 µg/mL, partner 6.24 µg/mL	0.0788
[1], first compound 1 µg/mL, partner 0.39 µg/mL	0.0293
[1], first compound 1 µg/mL, partner 0.78 µg/mL	0.0469
[1], first compound 1 µg/mL, partner 1.56 µg/mL	0.0437
[2], first compound 0.0625 µg/mL, partner 0.39 µg/mL	0.885
[2], first compound 0.0625 µg/mL, partner 0.78 µg/mL	0.885
[2], first compound 0.0625 µg/mL, partner 1.56 µg/mL	0.904
[3], first compound 0.2 µg/mL, partner 1 µg/mL	0.712
[3], first compound 0.2 µg/mL, partner 2 µg/mL	0.742
[3], first compound 0.2 µg/mL, partner 4 µg/mL	0.608
[3], first compound 0.4 µg/mL, partner 1 µg/mL	0.564
[3], first compound 0.4 µg/mL, partner 2 µg/mL	0.599
[3], first compound 0.4 µg/mL, partner 4 µg/mL	0.404
[3], first compound 0.8 µg/mL, partner 1 µg/mL	0.181
[3], first compound 0.8 µg/mL, partner 2 µg/mL	0.215
[3], first compound 0.8 µg/mL, partner 4 µg/mL	0.15

Details	Bliss interaction score
[4]	-0.0587
[5]	-0.0605
[6]	0.075
[7]	-0.132
